PubChem BioAssay AID256 (DTP/NCI, 2004)
Values joined by “and” are separate entries in the source; they are usually repeats but may differ in a detail not shown here. Equal entries are not always repeated. Toxic doses and inconclusive results are not listed.

Test system: CD2F1 mice, L1210 leukemia ip, survival T/C
Test: NCI In Vivo Anticancer Drug Screen. Data for tumor model L1210 Leukemia (intraperitoneal) in CD2F1 (CDF1) mice
Details: higher = longer survival
How it was run: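 Mice carrying a transplanted tumor received test compound or vehicle alone. The value is the measurement in the treated group divided by that in the vehicle-treated control group.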

[1] = endpoint: mean survival time, dose: 100.0 mg/kg/injection, schedule: Q01DX009 (ip), vehicle: saline with Tween-80
[2] = endpoint: mean survival time, dose: 200.0 mg/kg/injection, schedule: Q01DX009 (ip), vehicle: saline with Tween-80
[3] = endpoint: mean survival time, dose: 100.0 mg/kg/injection, schedule: Q04DX003 (ip), vehicle: saline with Tween-80
[4] = endpoint: mean survival time, dose: 200.0 mg/kg/injection, schedule: Q04DX003 (ip), vehicle: saline with Tween-80
[5] = endpoint: mean survival time, dose: 400.0 mg/kg/injection, schedule: Q04DX003 (ip), vehicle: saline with Tween-80
[6] = endpoint: mean survival time, dose: 6.25 mg/kg/injection, schedule: Q01DX009 (ip), vehicle: saline with Tween-80
[7] = endpoint: mean survival time, dose: 25.0 mg/kg/injection, schedule: Q01DX009 (ip), vehicle: saline with Tween-80

C[C@@](O)(/C=C/[C@H]1CC=CC(=O)O1)[C@@H](C[C@@H](O)\C=C/C=C\C=C\CO)OP(=O)(O)O
T/C (endpoint: median survival time, dose: 0.4 mg/kg/injection, schedule: Q01DX005 (iv), vehicle: other): 109 % of control | T/C (endpoint: median survival time, dose: 0.78 mg/kg/injection, schedule: Q01DX005 (iv), vehicle: other): 109 % of control | T/C (endpoint: median survival time, dose: 1.56 mg/kg/injection, schedule: Q01DX005 (iv), vehicle: other): 112 % of control | T/C (endpoint: median survival time, dose: 1.56 mg/kg/injection, schedule: Q01DX005 (iv), vehicle: saline): 121 % of control | T/C (endpoint: median survival time, dose: 1.56 mg/kg/injection, schedule: Q01DX009 (ip), vehicle: other): 243 % of control | T/C (endpoint: median survival time, dose: 1.56 mg/kg/injection, schedule: Q01DX009 (ip), vehicle: saline): 216 % of control | T/C (endpoint: median survival time, dose: 3.12 mg/kg/injection, schedule: Q01DX009 (ip), vehicle: other): 170 % of control and 191 % of control | T/C (endpoint: median survival time, dose: 3.12 mg/kg/injection, schedule: Q01DX009 (ip), vehicle: saline): 204 % of control | T/C (endpoint: median survival time, dose: 3.13 mg/kg/injection, schedule: Q01DX005 (iv), vehicle: other): 123 % of control | T/C (endpoint: median survival time, dose: 3.13 mg/kg/injection, schedule: Q01DX009 (ip), vehicle: other): 235 % of control | T/C (endpoint: median survival time, dose: 6.25 mg/kg/injection, schedule: Q01DX005 (iv), vehicle: other): 162 % of control | T/C (endpoint: median survival time, dose: 6.25 mg/kg/injection, schedule: Q01DX009 (ip), vehicle: other): 194 % of control and 207 % of control and 512 % of control | T/C (endpoint: median survival time, dose: 6.25 mg/kg/injection, schedule: Q01DX009 (ip), vehicle: saline): 216 % of control | T/C (endpoint: median survival time, dose: 12.5 mg/kg/injection, schedule: Q01DX005 (iv), vehicle: other): 197 % of control | T/C (endpoint: median survival time, dose: 12.5 mg/kg/injection, schedule: Q01DX005 (iv), vehicle: saline): 178 % of control | T/C (endpoint: median survival time, dose: 12.5 mg/kg/injection, schedule: Q01DX009 (ip), vehicle: other): 117 % of control and 337 % of control | T/C (endpoint: median survival time, dose: 12.5 mg/kg/injection, schedule: Q01DX009 (ip), vehicle: saline): 722 % of control | T/C (endpoint: median survival time, dose: 25.0 mg/kg/injection, schedule: Q01DX005 (iv), vehicle: other): 259 % of control | T/C (endpoint: median survival time, dose: 25.0 mg/kg/injection, schedule: Q01DX005 (iv), vehicle: saline): 201 % of control | T/C (endpoint: median survival time, dose: 25.0 mg/kg/injection, schedule: Q01DX009 (ip), vehicle: other): 273 % of control | T/C (endpoint: median survival time, dose: 50.0 mg/kg/injection, schedule: Q01DX005 (iv), vehicle: saline): 240 % of control

O=C1C=CC(=CC=C2C=CN(CCCCCCCCCCCO)C=C2)C=C1
T/C (endpoint: median survival time, dose: 1.56 mg/kg/injection, schedule: Q01DX005 (ip), vehicle: saline with Tween-80): 96 % of control | T/C (endpoint: median survival time, dose: 2.25 mg/kg/injection, schedule: Q01DX005 (ip), vehicle: saline with Tween-80): 102 % of control and 105 % of control | T/C (endpoint: median survival time, dose: 3.13 mg/kg/injection, schedule: Q01DX005 (ip), vehicle: saline with Tween-80): 107 % of control | T/C (endpoint: median survival time, dose: 3.75 mg/kg/injection, schedule: Q01DX005 (ip), vehicle: saline with Tween-80): 102 % of control and 105 % of control | T/C (endpoint: median survival time, dose: 6.25 mg/kg/injection, schedule: Q01DX005 (ip), vehicle: saline with Tween-80): 117 % of control and 109 % of control | T/C (endpoint: median survival time, dose: 10.4 mg/kg/injection, schedule: Q01DX005 (ip), vehicle: saline with Tween-80): 118 % of control | T/C (endpoint: median survival time, dose: 10.41 mg/kg/injection, schedule: Q01DX005 (ip), vehicle: saline with Tween-80): 118 % of control | T/C (endpoint: median survival time, dose: 12.5 mg/kg/injection, schedule: Q01DX005 (ip), vehicle: saline with Tween-80): 119 % of control | T/C (endpoint: median survival time, dose: 17.35 mg/kg/injection, schedule: Q01DX005 (ip), vehicle: saline with Tween-80): 119 % of control | T/C (endpoint: median survival time, dose: 17.4 mg/kg/injection, schedule: Q01DX005 (ip), vehicle: saline with Tween-80): 121 % of control | T/C (endpoint: median survival time, dose: 25.0 mg/kg/injection, schedule: Q01DX005 (ip), vehicle: saline with Tween-80): 92 % of control

Cc1ccc(S(=O)(=O)OC2CCCCC2c2cccc(Cl)c2)cc1 (stereo not drawn)
T/C (endpoint: mean survival time, dose: 75.0 mg/kg/injection, schedule: Q01DX001 (ip), vehicle: other): 92 % of control | T/C (endpoint: mean survival time, dose: 150.0 mg/kg/injection, schedule: Q01DX001 (ip), vehicle: other): 88 % of control | T/C (endpoint: mean survival time, dose: 300.0 mg/kg/injection, schedule: Q01DX001 (ip), vehicle: other): 101 % of control

CCOc1ccc(N2C(=O)CSC2=S)cc1
T/C (endpoint: mean survival time, dose: 50.0 mg/kg/injection, schedule: Q01DX009 (ip), vehicle: saline with Tween-80): 95 % of control | T/C [1]: 87 % of control | T/C [2]: 93 % of control

CC(C)CCC(C)C1CCC2C3CCC4CC(=O)CC4(C)C3CCC12C (stereo not drawn)
T/C [3]: 100 % of control | T/C [4]: 94 % of control | T/C [5]: 97 % of control

COC1=CC(=O)C2(C)CC=CCC2C1 (stereo not drawn)
T/C [1]: 98 % of control | T/C [3]: 92 % of control | T/C [2]: 95 % of control | T/C [4]: 103 % of control | T/C (endpoint: mean survival time, dose: 400.0 mg/kg/injection, schedule: Q01DX009 (ip), vehicle: saline with Tween-80): 95 % of control | T/C [5]: 91 % of control

N#CC1(C#N)OC1(C#N)c1ccccc1 (stereo not drawn)
T/C (endpoint: mean survival time, dose: 3.0 mg/kg/injection, schedule: Q01DX009 (ip), vehicle: saline with Tween-80): 101 % of control | T/C (endpoint: mean survival time, dose: 6.25 mg/kg/injection, schedule: Q01DX001 (ip), vehicle: saline with Tween-80): 95 % of control | T/C (endpoint: mean survival time, dose: 12.0 mg/kg/injection, schedule: Q01DX009 (ip), vehicle: saline with Tween-80): 98 % of control

COC1=CC23CCCN2CCc2cc4c(cc2C3C1O)OCO4 (stereo not drawn)
T/C (endpoint: mean survival time, dose: 12.5 mg/kg/injection, schedule: Q01DX009 (ip), vehicle: water): 97 % of control | T/C (endpoint: mean survival time, dose: 25.0 mg/kg/injection, schedule: Q01DX009 (ip), vehicle: water): 101 % of control | T/C (endpoint: mean survival time, dose: 50.0 mg/kg/injection, schedule: Q01DX009 (ip), vehicle: water): 100 % of control | T/C (endpoint: mean survival time, dose: 100.0 mg/kg/injection, schedule: Q01DX009 (ip), vehicle: water): 95 % of control | T/C (endpoint: mean survival time, dose: 200.0 mg/kg/injection, schedule: Q01DX009 (ip), vehicle: water): 97 % of control

CC(C)(C)OC(=O)C(CCC(=O)O)NC(=O)OCc1ccccc1 (stereo not drawn)
T/C [3]: 99 % of control | T/C [4]: 97 % of control | T/C [5]: 100 % of control

CCCCCCCCCCCCN=C(N)C(N)=NCCCCCCCCCCCC
T/C (endpoint: mean survival time, dose: 25.0 mg/kg/injection, schedule: Q04DX002 (ip), vehicle: other): 93 % of control | T/C (endpoint: mean survival time, dose: 50.0 mg/kg/injection, schedule: Q04DX002 (ip), vehicle: other): 93 % of control | T/C (endpoint: mean survival time, dose: 100.0 mg/kg/injection, schedule: Q04DX002 (ip), vehicle: other): 116 % of control

Cc1ccc2c(c1)C(c1ccccc1)(c1ccccc1)OC2=O
T/C [3]: 98 % of control | T/C [4]: 91 % of control | T/C [5]: 95 % of control

O=C1Cc2ccccc2C(=O)N1
T/C (endpoint: mean survival time, dose: 100.0 mg/kg/injection, schedule: Q01DX009 (ip), vehicle: saline sonified): 97 % of control | T/C (endpoint: mean survival time, dose: 200.0 mg/kg/injection, schedule: Q01DX009 (ip), vehicle: saline sonified): 98 % of control | T/C (endpoint: mean survival time, dose: 400.0 mg/kg/injection, schedule: Q01DX009 (ip), vehicle: saline sonified): 89 % of control

Cc1cc(N(CC(C)Br)CC(C)Br)ccc1N=Nc1ccccc1C(=O)O (stereo not drawn)
T/C (endpoint: mean survival time, dose: 3.13 mg/kg/injection, schedule: Q01DX009 (ip), vehicle: saline with Tween-80): 105 % of control and 112 % of control | T/C (endpoint: mean survival time, dose: 6.25 mg/kg/injection, schedule: Q01DX009 (ip), vehicle: Klucel (hydroxypropylcellulose) (HPC)): 106 % of control | T/C [6]: 114 % of control and 117 % of control and 109 % of control | T/C (endpoint: mean survival time, dose: 25.0 mg/kg/injection, schedule: Q01DX009 (ip), vehicle: Klucel (hydroxypropylcellulose) (HPC)): 119 % of control | T/C [7]: 86 % of control

CC1CC[N+](C)(CC(=O)c2ccc(-c3ccc(C(=O)C[N+]4(C)CCC(C)CC4)cc3)cc2)CC1 (stereo not drawn)
T/C (endpoint: mean survival time, dose: 0.02 mg/kg/injection, schedule: Q04DX003 (ip), vehicle: Klucel (hydroxypropylcellulose) (HPC)): 96 % of control | T/C (endpoint: mean survival time, dose: 0.04 mg/kg/injection, schedule: Q04DX003 (ip), vehicle: Klucel (hydroxypropylcellulose) (HPC)): 98 % of control | T/C (endpoint: mean survival time, dose: 0.08 mg/kg/injection, schedule: Q04DX003 (ip), vehicle: Klucel (hydroxypropylcellulose) (HPC)): 87 % of control and 95 % of control

CCCCCCCCCCCC[NH-].CCCCCCCCCCCC[NH-].[Cl][Pt+2][Cl]
T/C (endpoint: mean survival time, dose: 6.25 mg/kg/injection, schedule: Q04DX003 (ip), vehicle: saline + alcohol): 111 % of control | T/C (endpoint: mean survival time, dose: 12.5 mg/kg/injection, schedule: Q04DX003 (ip), vehicle: saline + alcohol): 95 % of control | T/C (endpoint: mean survival time, dose: 25.0 mg/kg/injection, schedule: Q04DX003 (ip), vehicle: saline + alcohol): 100 % of control | T/C (endpoint: mean survival time, dose: 50.0 mg/kg/injection, schedule: Q04DX003 (ip), vehicle: saline + alcohol): 103 % of control | T/C (endpoint: mean survival time, dose: 100.0 mg/kg/injection, schedule: Q04DX003 (ip), vehicle: saline + alcohol): 100 % of control

COC1=C(OC)C(=O)C(SCCCc2ccccc2)=CC1=O
T/C [6]: 98 % of control | T/C (endpoint: mean survival time, dose: 12.5 mg/kg/injection, schedule: Q01DX009 (ip), vehicle: saline with Tween-80): 102 % of control | T/C [7]: 93 % of control
